# Values of other authors as cited in US7393852B2, “Piperazine derivatives and methods of use” (Amgen Inc., priority 2003, dated 2008).
# Peptide text beside a SMILES is read from it.
structure (smiles),measurement,value
"NC(N)=NCCC[C@H](NC(=O)[C@H](Cc1ccccc1)NC(=O)[C@@H]1CCCN1C(=O)[C@H](CO)NC(=O)[C@H](Cc1ccccc1)NC(=O)CNC(=O)[C@@H]1CCCN1C(=O)[C@@H]1CCCN1C(=O)[C@@H](N)CCCN=C(N)N)C(=O)O [BK, Bradykinin] (H-RPPGFSPFR-OH)",half-life of BK in plasma,approximately 17 seconds
